Experimental data: patent publication US8835464B2, “Triazole compounds that modulate HSP90 activity” (Synta Pharmaceuticals Corp., priority 2006, dated 2014)
Where a name gives a salt, the structure may show the parent alone.

System: Hsp90
Experiment: IC50 of compounds of the invention, Example B Method 2 (Tables 6-9)
Type: cell-based, human
Settings: Table 7; Her2 degradation / inhibition of Hsp90; Method 2: MV-4-11 cells, 72 hours, Cell Counting Kit-8; read-out: IC50

IC50	Structure (SMILES)
3000 nM	CC(C)c1cc(-c2nnc(NC(=O)C(F)(F)F)n2-c2ccc3c(ccn3C)c2)c(O)cc1O [Compound 18a, N-(5-(2,4-dihydroxy-5-isopropylphenyl)-4-(1-methyl-1H-indol-5-yl)-4H-1,2,4-triazol-3-yl)-2,2,2-trifluoroacetamide]
35000 nM	CC(C)c1cc(-c2nnc(NCc3ccccc3)n2-c2ccc3c(ccn3C)c2)c(O)cc1O [Compound 3a, 4-Isopropyl-6-[4-(1-methyl-1H-indol-5-yl)-5-benzylamino-4H-[1,2,4]triazol-3-yl]-benzene-1,3-diol]
7860 nM	Cc1cc(C(=O)Nc2nnc(-c3cc(C(C)C)c(O)cc3O)n2-c2ccc3c(ccn3C)c2)no1 [Compound 10a, N-(5-(2,4-dihydroxy-5-isopropylphenyl)-4-(1-methyl-1H-indol-5-yl)-4H-1,2,4-triazol-3-yl)-5-methylisoxazole-3-carboxamide]
382 nM	CC(=O)Nc1nnc(-c2cc(C(C)C)c(O)cc2O)n1-c1ccc2c(ccn2C)c1 [Compound 11a, N-(5-(2,4-dihydroxy-5-isopropylphenyl)-4-(1-methyl-1H-indol-5-yl)-4H-1,2,4-triazol-3-yl)acetamide]
1800 nM	COCC(=O)Nc1nnc(-c2cc(C(C)C)c(O)cc2O)n1-c1ccc2c(ccn2C)c1 [Compound 13a, N-(5-(2,4-dihydroxy-5-isopropylphenyl)-4-(1-methyl-1H-indol-5-yl)-4H-1,2,4-triazol-3-yl)-2-methoxyacetamide]
1680 nM	CC(C)c1cc(-c2nnc(NC(=O)c3ccc(F)c(F)c3)n2-c2ccc3c(ccn3C)c2)c(O)cc1O [Compound 17a, N-(5-(2,4-dihydroxy-5-isopropylphenyl)-4-(1-methyl-1H-indol-5-yl)-4H-1,2,4-triazol-3-yl)-3,4-difluorobenzamide]
1400 nM	CC(C)c1cc(-c2nnc(Nc3ccccc3)n2-c2ccc3c(ccn3C)c2)c(O)cc1O [Compound 1a, 4-Isopropyl-6-[4-(1-methyl-1H-indol-5-yl)-5-phenylamino-4H-[1,2,4]triazol-3-yl]-benzene-1,3-diol]
680 nM	CC(C)c1cc(-c2nnc(Nc3ccc4ncccc4c3)n2-c2ccc3c(ccn3C)c2)c(O)cc1O [Compound 5a, 4-isopropyl-6-(4-(1-methyl-1H-indol-5-yl)-5-(quinolin-6-ylamino)-4H-1,2,4-triazol-3-yl)benzene-1,3-diol]
2600 nM	CC(C)c1cc(-c2nnc(NC(=O)c3ccccc3)n2-c2ccc3c(ccn3C)c2)c(O)cc1O [Compound 9a, N-(5-(2,4-dihydroxy-5-isopropylphenyl)-4-(1-methyl-1H-indol-5-yl)-4H-1,2,4-triazol-3-yl)benzamide]
> 5000 nM	CC(C)c1cc(-c2nnc(Nc3cccc(C(F)(F)F)c3)n2-c2ccc3c(ccn3C)c2)c(O)cc1O [Compound 7a, 4-isopropyl-6-(4-(1-methyl-1H-indol-5-yl)-5-(3-(trifluoromethyl)phenylamino)-4H-1,2,4-triazol-3-yl)benzene-1,3-diol]

Same assay, conditions: Table 8; Her2 degradation / inhibition of Hsp90; Method 2: MV-4-11 cells, 72 hours, Cell Counting Kit-8; read-out: IC50

IC50	Structure (SMILES)
56 nM	CC(N)C(=O)Oc1cc(OC(=O)C(C)N)c(C(C)C)cc1-c1nn(C(=O)C(C)N)c(=O)n1-c1ccc2c(ccn2C)c1 (stereo not shown) [Compound 16b, 4-(1-(2-aminopropanoyl)-4-(1-methyl-1H-indol-5-yl)-5-oxo-4,5-dihydro-1H-1,2,4-triazol-3-yl)-6-isopropyl-1,3-phenylene bis(2-aminopropanoate) trihydrochloride]
27 nM	CC(C)c1cc(-c2nn(COC(=O)C(N)Cc3ccccc3)c(=O)n2-c2ccc3c(ccn3C)c2)c(O)cc1O (stereo not shown) [Compound 13b, (3-(2,4-dihydroxy-5-isopropylphenyl)-4-(1-methyl-1H-indol-5-yl)-5-oxo-4,5-dihydro-1H-1,2,4-triazol-1-yl)methyl 2-amino-3-phenylpropanoate]
58 nM	CC(C)c1cc(-c2nnc(SSc3nnc(-c4cc(C(C)C)c(O)cc4O)n3-c3ccc(N(C)C)cc3)n2-c2ccc(N(C)C)cc2)c(O)cc1O [Compound 7b, 6,6′-(5,6-disulfanediylbis(4-(4-(dimethylamino)phenyl)-4H-1,2,4-triazole-5,3-diyl))bis(4-isopropylbenzene-1,3-diol)]
29 nM	CC(C)c1cc(-c2nn(COC(=O)C(N)C(C)C)c(=O)n2-c2ccc3c(ccn3C)c2)c(O)cc1O (stereo not shown) [Compound 12b, (3-(2,4-dihydroxy-5-isopropylphenyl)-4-(1-methyl-1H-indol-5-yl)-5-oxo-4,5-dihydro-1H-1,2,4-triazol-1-yl)methyl 2-amino-3-methylbutanoate]
46 nM	CC(C)c1cc(-c2nn(C(=O)C(N)Cc3ccccc3)c(=O)n2-c2ccc3c(ccn3C)c2)c(OC(=O)C(N)Cc2ccccc2)cc1OC(=O)C(N)Cc1ccccc1 (stereo not shown) [Compound 17b, 4-(1-(2-amino-3-phenylpropanoyl)-4-(1-methyl-1H-indol-5-yl)-5-oxo-4,5-dihydro-1H-1,2,4-triazol-3-yl)-6-isopropyl-1,3-phenylene bis(2-amino-3-phenylpropanoate) trihydrochloride]
40 nM	CC(=O)n1ccc2cc(-n3c(O)nnc3-c3cc(C(C)C)c(O)cc3O)ccc21 [Compound 9b, 1-(5-(3-(2,4-dihydroxy-5-isopropylphenyl)-5-hydroxy-4H-1,2,4-triazol-4-yl)-1H-indol-1-yl)ethanone]
< 110 nM	CC(C)c1cc(-c2nnc(O)n2-c2ccc3c(ccn3C(=O)CCNC(=O)OC(C)(C)C)c2)c(O)cc1O [Compound 10b, tert-butyl 3-(5-(3-(2,4-dihydroxy-5-isopropylphenyl)-5-hydroxy-4H-1,2,4-triazol-4-yl)-1H-indol-1-yl)-3-oxopropylcarbamate]
79 nM	CC(C)c1cc(-c2nn(C(=O)CN)c(=O)n2-c2ccc3c(ccn3C)c2)c(OC(=O)CN)cc1OC(=O)CN [Compound 15b, 4-(1-(2-aminoacetyl)-4-(1-methyl-1H-indol-5-yl)-5-oxo-4,5-dihydro-1H-1,2,4-triazol-3-yl)-6-isopropyl-1,3-phenylene bis(2-aminoacetate) trihydrochloride]
< 100 nM	COCCC(=O)n1ccc2cc(-n3c(O)nnc3-c3cc(C(C)C)c(O)cc3O)ccc21 [Compound 11b, 3-(2,4-dihydroxy-5-isopropylphenyl)-4-(1-(3-methoxypropanoyl)-1H-indol-5-yl)-1H-1,2,4-triazol-5(4H)-one]

Same assay, conditions: Table 9; Her2 degradation / inhibition of Hsp90; Method 2: MV-4-11 cells, 72 hours, Cell Counting Kit-8; dihydrochloride; read-out: IC50 Range

Structure (SMILES)	IC50
CC(C)c1cc(-c2nnc(O)n2-c2ccc(N3CCN(C)CC3)nc2)c(O)cc1O [Compound 9d, 4-(5-hydroxy-4-(6-(4-methylpiperazin-1-yl)pyridin-3-yl)-4H-1,2,4-triazol-3-yl)-6-isopropylbenzene-1,3-diol dihydrochloride]	220 nM

Same assay, conditions: Table 9; Her2 degradation / inhibition of Hsp90; Method 2: MV-4-11 cells, 72 hours, Cell Counting Kit-8; hydrochloride; read-out: IC50 Range

IC50	Structure (SMILES)
207 nM	CC(C)c1cc(-c2nnc(O)n2-c2ccc(N(C)C)c(S(N)(=O)=O)c2)c(O)cc1O [Compound 13d, 5-(3-(2,4-dihydroxy-5-isopropylphenyl)-5-hydroxy-4H-1,2,4-triazol-4-yl)-2-(dimethylamino)benzene sulfonamide hydrochloride]

Same assay, conditions: Table 9; Her2 degradation / inhibition of Hsp90; Method 2: MV-4-11 cells, 72 hours, Cell Counting Kit-8; read-out: IC50 Range

IC50	Structure (SMILES)
114 nM	CC(C)c1cc(-c2nnc(O)n2-c2ccc(OCCN3CCOCC3)nc2)c(O)cc1O [Compound 20d, 4-(5-hydroxy-4-(6-(2-morpholinoethoxy)pyridin-3-yl)-4H-1,2,4-triazol-3-yl)-6-isopropylbenzene-1,3-diol]
336 nM	CC(C)c1cc(-c2nnc(O)n2-c2ccc(N(C)C)c(S(N)(=O)=O)c2)c(O)cc1O [Compound 12d, 5-(3-(2,4-dihydroxy-5-isopropylphenyl)-5-hydroxy-4H-1,2,4-triazol-4-yl)-2-(dimethylamino)benzene sulfonamide]
330 nM	CC(C)c1cc(-c2nnc(O)n2-c2cccc(S(=O)(=O)N3CCOCC3)c2)c(O)cc1O [Compound 15d, 4-(5-hydroxy-4-(3-(morpholinosulfonyl)phenyl)-4H-1,2,4-triazol-3-yl)-6-isopropylbenzene-1,3-diol]
330 nM	CC(C)c1cc(-c2nnc(O)n2-c2ccc(N(C)CC(=O)O)nc2)c(O)cc1O [Compound 4d, 2-(N-(5-(3-(2,4-dihydroxy-5-isopropylphenyl)-5-oxo-1H-1,2,4-triazol-4(5H)-yl)pyridin-2-yl)-N-methylamino)acetic acid]
30 nM	COCCN(C)c1ccc(-n2c(O)nnc2-c2cc(C(C)C)c(O)cc2O)cn1 [Compound 1d, 4-(4-(6-(N-(2-methoxyethyl)-N-methylamino)pyridin-3-yl)-5-hydroxy-4H-1,2,4-triazol-3-yl)-6-isopropylbenzene-1,3-diol]
49 nM	CC(C)c1cc(-c2nnc(O)n2-c2ccc(N3CCOCC3)nc2)c(O)cc1O [Compound 19d, 4-(5-hydroxy-4-(6-morpholinopyridin-3-yl)-4H-1,2,4-triazol-3-yl)-6-isopropylbenzene-1,3-diol]
220 nM	CC(C)c1cc(-c2nnc(O)n2-c2ccc(N(C)CCN(C)C)nc2)c(O)cc1O [Compound 5d, 4-(4-(6-(N-(2-(dimethylamino)ethyl)-N-methylamino)pyridin-3-yl)-5-hydroxy-4H-1,2,4-triazol-3-yl)-6-isopropylbenzene-1,3-diol]
336 nM	CC(C)c1cc(-c2nnc(S)n2-c2cccc(S(N)(=O)=O)c2)c(O)cc1O [Compound 14d, 3-(3-(2,4-dihydroxy-5-isopropylphenyl)-5-mercapto-4H-1,2,4-triazol-4-yl)benzenesulfonamide]

Structure (SMILES)	IC50
CC(C)c1cc(-c2nnc(O)n2-c2ccc(N(C)C)nc2)c(O)cc1O [Compound 6d, 4-(4-(6-(dimethylamino)pyridin-3-yl)-5-hydroxy-4H-1,2,4-triazol-3-yl)-6-isopropylbenzene-1,3-diol]	58 nM
CC(C)c1cc(-c2nnc(O)n2-c2ccc(N(C)S(C)(=O)=O)cc2)c(O)cc1O [Compound 17d, N-(4-(3-(2,4-dihydroxy-5-isopropylphenyl)-5-hydroxy-4H-1,2,4-triazol-4-yl)phenyl)-N-methylmethanesulfonamide]	85 nM
